Data set [1] in a line: Ex vivo cornea permeation (Franz diffusion cell). The format is in vitro ADME. Conditions: from BT/BH solution, within 4 h, 37 °C, rabbit cornea. As to the method: After using dextran to confirm the intactness of cornea extracted from fresh rabbit eyes, that cornea was mounted between the donor chamber and receptor chamber of a Franz diffusion cell system. […] The set was incubated at 37 °C. At predetermined intervals up to 12 h, an aliquot of 100 μL was withdrawn from the receptor chamber and analyzed by LC-MS. An equal volume of fresh PBS was supplemented to the receptor chamber following each sampling. FITC-labeled Dextran was tested to confirm the intactness of the cornea, and the permeation of the FITC-labeled Dextran was quantified by measuring the fluorescence intensity of FITC (Emission: 525 nm, Excitation: 490 nm) using a microplate reader.

The conditions of data set [2]: eye drops, salt form; background statement; cited from earlier work.
Data set [3] is described as follows: In vitro drug release by dialysis in PBS. Conditions: from BT/BH solution; within 4 h, PBS pH 7.4, 37 °C, sink condition. The format is physicochemical. As to the method:
The tube was then immersed in 5 mL of PBS, and the set was incubated at 37 °C with shaking (100 rpm). At predetermined intervals, 100 μL of the release medium (PBS) was withdrawn and replaced with equal volume of fresh medium. […] These experiments were carried out in triplicate.
Because the BM/BX SDNs are composed of hydrophobic drugs, the release was expected to slow down in comparison to their hydrophilic counterparts BT and BH.

Structures can show the parent of a compound that is named as a salt.

Take `CC(C)NCC(O)COc1ccc(CCOCC2CC2)cc1` (stereo not drawn) [BH, betaxolol hydrochloride]: the “hydrophilic counterpart penetrated across the cornea” value in data set [1] was “less than 10%”. For the same molecule, the bioavailability result in data set [2] is recorded as “less than 5%”. In addition, in data set [3], the BH released is above 70%.

As for `Brc1c(NC2=NCCN2)ccc2nccnc12.O=C(O)C(O)C(O)C(=O)O` [BT, brimonidine tartrate], the “hydrophilic counterpart penetrated across the cornea” value in data set [1] is on record as “less than 10%”. Besides, in data set [2], the bioavailability entry is given as “less than 5%”. In data set [3], the BT released entry is reported as “more than 60%”.

Source of the values: patent US20260364024A1, “A SCALABLE AND CONTINUOUS METHOD TO PREPARE SOLID DRUG NANOPARTICLES FOR OCULAR DISEASE THERAPY” (The Curators of the University of Missouri, priority 2023, published 2026).
